One data set has as its target T1, trypsin (Bos taurus, UniProt P00760).
T1 construct: purchased Sigma Aldrich (St. Louis, Mo.); host or cells: bovine pancreas
T1 sequence (P00760 24-246): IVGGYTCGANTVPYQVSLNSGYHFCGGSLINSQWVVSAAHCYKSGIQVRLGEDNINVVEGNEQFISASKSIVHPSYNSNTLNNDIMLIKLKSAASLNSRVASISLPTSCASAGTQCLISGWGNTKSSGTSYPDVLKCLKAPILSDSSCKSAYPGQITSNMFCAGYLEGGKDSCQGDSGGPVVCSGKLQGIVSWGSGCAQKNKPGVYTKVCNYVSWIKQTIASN
Description: Protease stability (trypsin, HPLC assay). Type of data set: in vitro ADME, bovine. The settings on record: 40 μM peptide, 5 μg/mL trypsin, TBS, room temperature. The method, then:
Locations of β^3 residues in B5 and D6 are indicated by highlighted residues. Solutions of 40 μM peptide in TBS were incubated at room temperature with 5 μg/mL trypsin. Vertical lines indicate observation by MALDI-MS of one or both products consistent with hydrolysis of the backbone amide bond between the noted residues. […] Each data point represents the average of measurements from duplicate experiments, with error bars corresponding to the standard deviation.
An HPLC assay was used to assess proteolytic stability.^30, 32 Peptide concentration was determined by UV-Vis spectroscopy (calculated from the UV-vis absorption at 280 nm, ε280 nm=5,690 M^−1 cm^−1 for all peptides except D6 and D7, ε280 nm=11,380 M^−1 cm^−1 based on an extinction coefficient for the tryptophan sidechain chromophore of 5,690 M^−1 cm^−1).^33 Peptide stock solutions were prepared in degassed water to a concentration of 200 μM. […] A portion (75 μL) of the quenched reaction mixture was injected onto an analytical RP-HPLC (see peptide synthesis and purification section above), and peaks were analyzed. The time course of peptide degradation was experimentally determined by integrating the area of the peak corresponding to the non-hydrolyzed peptide in a series of HPLC traces, with duplicate proteolysis reactions being used to generate error bars corresponding to the standard deviation. […]

The target in another data set is T2, RG form of rat PTHR-1 (Rattus norvegicus, UniProt P25961).
T2 construct: expressed in transfected cells; host or cells: COS-7
T2 sequence (P25961 27-591): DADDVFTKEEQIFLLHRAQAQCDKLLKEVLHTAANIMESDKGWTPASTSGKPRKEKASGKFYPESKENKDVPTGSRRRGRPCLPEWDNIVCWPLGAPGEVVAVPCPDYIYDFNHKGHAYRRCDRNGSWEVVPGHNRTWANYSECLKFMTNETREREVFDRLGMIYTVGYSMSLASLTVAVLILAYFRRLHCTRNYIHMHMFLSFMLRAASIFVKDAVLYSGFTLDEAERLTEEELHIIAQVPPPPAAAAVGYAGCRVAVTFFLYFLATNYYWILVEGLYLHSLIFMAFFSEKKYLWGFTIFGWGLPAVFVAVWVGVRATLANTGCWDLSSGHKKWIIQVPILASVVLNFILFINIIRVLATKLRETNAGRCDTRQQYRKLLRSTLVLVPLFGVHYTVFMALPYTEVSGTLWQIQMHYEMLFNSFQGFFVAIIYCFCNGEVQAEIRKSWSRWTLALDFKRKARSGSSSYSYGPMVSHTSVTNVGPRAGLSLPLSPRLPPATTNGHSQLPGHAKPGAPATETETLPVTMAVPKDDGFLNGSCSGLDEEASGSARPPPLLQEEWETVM
Description: Radio-ligand competition binding to RG form of rat PTHR-1. From the text:
Data are means (±SEM) of n≥4 experiments, each performed in duplicate.

Another data set concerns the target T3, PTHR (Homo sapiens, UniProt Q03431).
T3 construct: expressed in transfected cells
T3 sequence (Q03431 27-593): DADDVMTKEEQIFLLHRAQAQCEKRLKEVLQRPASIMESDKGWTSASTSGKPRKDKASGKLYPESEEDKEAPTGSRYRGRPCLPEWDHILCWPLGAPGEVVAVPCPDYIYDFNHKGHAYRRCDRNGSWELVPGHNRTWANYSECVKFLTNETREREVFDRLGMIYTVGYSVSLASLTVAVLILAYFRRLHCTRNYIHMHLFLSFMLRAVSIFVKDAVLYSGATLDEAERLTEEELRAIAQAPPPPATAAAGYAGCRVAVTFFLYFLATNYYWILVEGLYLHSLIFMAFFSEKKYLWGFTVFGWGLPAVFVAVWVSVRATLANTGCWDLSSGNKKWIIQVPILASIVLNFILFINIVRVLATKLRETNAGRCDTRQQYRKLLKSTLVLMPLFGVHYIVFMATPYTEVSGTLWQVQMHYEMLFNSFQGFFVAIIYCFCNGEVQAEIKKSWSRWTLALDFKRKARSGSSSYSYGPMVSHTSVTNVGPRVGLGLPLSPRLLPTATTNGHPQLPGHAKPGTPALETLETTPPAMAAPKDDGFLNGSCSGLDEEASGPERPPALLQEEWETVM
Nature of the data set: cAMP induction potency, N-terminal modifications and cyclic constraints (Tables 9, 10, 13). Type of data set: cell-based. The settings on record: Table 9.

The mark [1] stands for this setting: Table 2, read-out: RG IC50, nM, Binding (rPTHR-1).

Each structure is given as a SMILES string. Where two headings read alike, the source gives them in different places.

For the compound `CC[C@H](C)[C@H](NC(=O)[C@H](CCC(=O)O)NC(=O)[C@H](CO)NC(=O)[C@@H](NC(=O)[C@@H](N)CO)C(C)C)C(=O)N[C@@H](CCC(N)=O)C(=O)N[C@@H](CC(C)C)C(=O)N[C@@H](CCSC)C(=O)N[C@@H](Cc1cnc[nH]1)C(=O)N[C@@H](CC(N)=O)C(=O)N[C@@H](CC(C)C)C(=O)NCC(=O)N[C@@H](CCCCN)C(=O)N[C@@H](Cc1cnc[nH]1)C(=O)N[C@@H](CC(C)C)C(=O)N[C@@H](CC(N)=O)C(=O)N[C@@H](CO)C(=O)N[C@@H](CCSC)C(=O)N[C@@H](CCC(=O)O)C(=O)N[C@@H](CCCN=C(N)N)C(=O)N[C@H](C(=O)N[C@@H](CCC(=O)O)C(=O)N[C@@H](Cc1c[nH]c2ccccc12)C(=O)N[C@@H](CC(C)C)C(=O)N[C@@H](CCCN=C(N)N)C(=O)N[C@@H](CCCCN)C(=O)N[C@@H](CCCCN)C(=O)N[C@@H](CC(C)C)C(=O)N[C@@H](CCC(N)=O)C(=O)N[C@@H](CC(=O)O)C(=O)N[C@H](C(=O)N[C@@H](Cc1cnc[nH]1)C(=O)N[C@@H](CC(N)=O)C(=O)N[C@@H](Cc1ccccc1)C(=O)O)C(C)C)C(C)C` [PTH(1-34), reference compound], the proteolysis by trypsin result at trypsin is on record as “Proteolysis was observed at all predicted trypsin cut sites”.

For the compound `CC[C@H](C)[C@H](NC(=O)[C@H](CCC(=O)O)NC(=O)[C@H](CO)NC(=O)[C@@H](NC(=O)[C@@H](N)CO)C(C)C)C(=O)N[C@@H](CCC(N)=O)C(=O)N[C@@H](CC(C)C)C(=O)N[C@@H](CCSC)C(=O)N[C@@H](Cc1c[nH]cn1)C(=O)N[C@@H](CC(N)=O)C(=O)N[C@@H](CC(C)C)C(=O)NCC(=O)N[C@@H](CCCCN)C(=O)N[C@@H](Cc1c[nH]cn1)C(=O)N[C@@H](CC(C)C)C(=O)N[C@@H](CC(N)=O)CC(=O)N[C@@H](CO)C(=O)N[C@@H](CCSC)C(=O)N[C@@H](CCC(=O)O)C(=O)N[C@@H](CCCNC(=N)N)CC(=O)N[C@H](C(=O)N[C@@H](CCC(=O)O)C(=O)N[C@@H](Cc1c[nH]c2ccccc12)C(=O)N[C@H](CC(=O)N[C@@H](CCCNC(=N)N)C(=O)N[C@@H](CCCCN)C(=O)N[C@@H](CCCCN)C(=O)N[C@H](CC(=O)N[C@@H](CCC(N)=O)C(=O)N[C@@H](CC(=O)O)C(=O)N[C@H](C(=O)N[C@@H](CCC(N)=O)CC(=O)N[C@@H](CC(N)=O)C(=O)N[C@@H](Cc1ccccc1)C(N)=O)C(C)C)CC(C)C)CC(C)C)C(C)C` [B5], the IC50 at RG form of rat PTHR-1 (setting [1]) is 4.2 nM; at RG form of rat PTHR-1 (Table 5, rat PTHR-1, mean ± SEM, read-out: RG -log (IC50) (converted)), 4.27 nM.

`CC[C@H](C)[C@H](NC(=O)[C@H](CCC(=O)O)NC(=O)[C@H](CO)NC(=O)[C@@H](NC(=O)[C@@H](N)CO)C(C)C)C(=O)N[C@@H](CCC(N)=O)C(=O)N[C@@H](CC(C)C)C(=O)N[C@@H](CCSC)C(=O)N[C@@H](Cc1cnc[nH]1)C(=O)N[C@@H](CC(N)=O)C(=O)N[C@@H](CC(C)C)C(=O)NCC(=O)N[C@@H](CCCCN)C(=O)N[C@H](CC(=O)N[C@@H](CC(C)C)C(=O)N[C@@H](CC(N)=O)C(=O)N[C@@H](CO)C(=O)N[C@@H](CCSC)CC(=O)N[C@@H](CCC(=O)O)C(=O)N[C@@H](CCCNC(=N)N)C(=O)N[C@H](C(=O)N[C@@H](CCC(=O)O)CC(=O)N[C@@H](Cc1c[nH]c2ccccc12)C(=O)N[C@@H](CC(C)C)C(=O)N[C@@H](CCCNC(=N)N)C(=O)N[C@@H](CCCCN)CC(=O)N[C@@H](CCCCN)C(=O)N[C@@H](CC(C)C)C(=O)N[C@@H](CCC(N)=O)C(=O)N[C@@H](CC(=O)O)CC(=O)N[C@H](C(=O)N[C@@H](Cc1cnc[nH]1)C(=O)N[C@@H](CC(N)=O)C(=O)N[C@H](CC(N)=O)Cc1ccccc1)C(C)C)C(C)C)Cc1c[nH]c2ccccc12` [D6]: the proteolysis by trypsin entry at trypsin was “poorer substrate than is the α-peptide”. On PTHR, the “Fold PTH” value was 2.1. Besides, the EC50 on PTHR (read-out: EC50, nM (cAMP induction potency)) was determined as 0.17 ± 0.05 nM. In addition, the IC50 on RG form of rat PTHR-1 (setting [1]) worked out at 0.81 nM.

In general, IC50 refers to the concentration needed to halve the response being measured. One may read the EC50 as the concentration needed to bring the measured effect to its halfway point.

The values above are taken from patent publication US10501518B2 (priority 2013, dated 2019).
